Consider 1 molecule from BindingDB's records for doi:10.1016/s0960-894x(00)00535-7 (Kyoto University, 2000).

This test can be described thus: Inhibition of HIV-induced cytopathogenicity in MT-4 cell. A general note: Damage to the host cells serves as the signal in cytopathic effect assays.

Each structure is given as a SMILES string.

Broadly, the EC50 is the concentration at which the effect is half-maximal. High values mean a need for much substance, low ones an effect from little substance. `C[C@@H]1NC(=O)[C@H](Cc2ccc(O)cc2)NC(=O)[C@@H](NC(=O)[C@H](Cc2ccc3ccccc3c2)NC(=O)[C@H](CCCN=C(N)N)NC(=O)[C@@H](N)CCCN=C(N)N)CSSC[C@@H](C(=O)N[C@@H](CCCN=C(N)N)C(=O)O)NC(=O)[C@H](CCCNC(N)=O)NC(=O)[C@H](CCCN=C(N)N)NC(=O)[C@H](Cc2ccc(O)cc2)NC(=O)[C@@H]2CCCN2C(=O)[C@@H](CCCCN)NC(=O)[C@H](CCCCN)NC1=O` [TC-14002] displayed an EC50 of 9.3 nM.
